Source: US20230115176A1 (Ra Pharmaceuticals, Inc., priority 2019, published 2023)

Columns and labels:
[1] = molecular target: human C5 complement protein (Homo sapiens, UniProt P01031); assay: Surface plasmon resonance (SPR), immobilized human C5, 37° C. (Example 12, Table 21); assay type: binding; conditions: where a range of compound concentrations were analyzed, the lowest value obtained
Text: (§1) Compound CU0136 is a racemic mixture of Compound CU0186 and CU0187. Numbers in parenthesis following compound numbers indicate alternate enantiomers (as distinguished by retention time during chromatographical separation).

Human C5 = molecular target: T1, Human C5 (Homo sapiens, UniProt P01031); assay: Red blood cell (RBC) hemolysis assay, luminescent (Example 13, Table 22); assay type: cell-based; conditions: sheep EA cells, […] C5-depleted human serum, 0.5 nM human C5, 1 hour 37° C., luminescence; further: 1.5% C5-depleted human serum
T1 construct: purchased Complement Technology
Text: as §1

T1 sequence (P01031 19-1676): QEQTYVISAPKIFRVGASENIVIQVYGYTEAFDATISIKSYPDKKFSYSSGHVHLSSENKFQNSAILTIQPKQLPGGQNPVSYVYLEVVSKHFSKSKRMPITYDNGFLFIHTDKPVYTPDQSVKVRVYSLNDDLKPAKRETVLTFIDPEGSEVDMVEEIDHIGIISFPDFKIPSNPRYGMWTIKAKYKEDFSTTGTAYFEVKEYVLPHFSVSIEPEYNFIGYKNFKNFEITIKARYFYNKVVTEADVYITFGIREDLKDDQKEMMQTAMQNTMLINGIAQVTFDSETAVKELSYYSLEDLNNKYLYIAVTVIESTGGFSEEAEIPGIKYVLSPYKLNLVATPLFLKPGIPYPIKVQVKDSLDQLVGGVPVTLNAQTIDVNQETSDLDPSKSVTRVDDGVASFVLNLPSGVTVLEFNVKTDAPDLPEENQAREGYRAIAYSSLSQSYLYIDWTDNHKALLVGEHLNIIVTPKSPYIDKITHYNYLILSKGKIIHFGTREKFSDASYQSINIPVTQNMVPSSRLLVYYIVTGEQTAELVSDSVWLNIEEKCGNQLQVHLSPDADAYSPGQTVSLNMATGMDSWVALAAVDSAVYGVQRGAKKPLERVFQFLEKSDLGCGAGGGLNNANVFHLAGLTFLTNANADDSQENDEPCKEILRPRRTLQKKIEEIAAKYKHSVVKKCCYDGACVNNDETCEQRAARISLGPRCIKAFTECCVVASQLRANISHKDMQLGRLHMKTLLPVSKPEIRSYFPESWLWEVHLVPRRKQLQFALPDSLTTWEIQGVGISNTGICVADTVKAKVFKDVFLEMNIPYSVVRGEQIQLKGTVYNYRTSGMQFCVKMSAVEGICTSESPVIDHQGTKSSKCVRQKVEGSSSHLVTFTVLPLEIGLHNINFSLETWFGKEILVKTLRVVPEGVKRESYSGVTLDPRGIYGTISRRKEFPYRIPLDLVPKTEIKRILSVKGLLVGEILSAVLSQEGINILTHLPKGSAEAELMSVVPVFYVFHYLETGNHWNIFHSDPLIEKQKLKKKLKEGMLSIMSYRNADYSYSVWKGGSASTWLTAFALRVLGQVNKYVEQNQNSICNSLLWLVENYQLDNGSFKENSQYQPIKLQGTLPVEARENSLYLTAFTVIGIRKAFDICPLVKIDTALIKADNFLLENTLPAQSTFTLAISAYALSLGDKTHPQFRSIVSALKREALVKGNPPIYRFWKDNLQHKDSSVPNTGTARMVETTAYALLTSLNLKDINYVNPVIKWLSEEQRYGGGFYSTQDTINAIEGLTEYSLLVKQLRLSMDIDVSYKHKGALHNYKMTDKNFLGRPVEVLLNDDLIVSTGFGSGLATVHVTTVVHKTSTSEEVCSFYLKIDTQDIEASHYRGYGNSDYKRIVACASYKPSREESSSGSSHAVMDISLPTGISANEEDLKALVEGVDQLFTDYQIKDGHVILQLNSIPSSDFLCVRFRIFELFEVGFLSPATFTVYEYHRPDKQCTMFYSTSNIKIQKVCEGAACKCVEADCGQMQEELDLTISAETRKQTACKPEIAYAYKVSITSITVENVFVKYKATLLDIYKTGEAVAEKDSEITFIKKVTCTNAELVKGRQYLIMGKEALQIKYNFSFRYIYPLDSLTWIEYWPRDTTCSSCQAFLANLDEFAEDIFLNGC
Chain of human C5 complement protein (P01031 19-1676): as above

Row | Kd [1] [nM] | Compound | IC50 (Human C5) [nM]
1 | 74.5 | CCCCCOc1cc(N2CCCN(Cc3ccccc3Cl)C2=O)ccc1OC [CU0010] | 34.9
2 | 816 | CCCCCOc1cc(N2CCN(Cc3cccc(F)c3Cl)C2=O)ccc1OC [CU0011] | 886
3 | 326 | CCCCCOc1cc(N2CCCN(Cc3cccc(F)c3Cl)C2=O)ccc1OC [CU0012] | 128
4 | 454 | CCCCCOc1cc(N2CCN(Cc3cc(F)ccc3Cl)C2=O)ccc1OC [CU0013] | 602
5 | 174 | CCCCCOc1cc(N2CCCN(Cc3cc(F)ccc3Cl)C2=O)ccc1OC [CU0014] | 77.6
6 | 188 | CCCCCOc1cc(N2CCN(Cc3cccnc3OC)C2=O)ccc1OC [CU0017] | 106
7 | 27.5 | CCCCCOc1cc(N2CCCN(Cc3cccnc3OC)C2=O)ccc1OC [CU0018] | 40.6
8 | 3 | CCCCCOc1cc(N2CCCN(Cc3cccc4c3ccn4C3CCN(C)C3=O)C2=O)ccc1OC (stereo not shown) [CU0020] | 17.2
9 | 1.5 | CCCCCOc1cc(N2CCCN(Cc3cccc4c3ccn4CC3(O)CCNCC3)C2=O)ccc1OC [CU0021] | 14.5
10 | 2.9 | CCCCCOc1cc(N2CCCN(Cc3cccc4c3ccn4CC3(O)CCN(C)CC3)C2=O)ccc1OC [CU0022] | 17.1
11 | 5 | CCCCCOc1cc(N2CCCN(Cc3cccc4c3ccn4Cc3nncn3C)C2=O)ccc1OC [CU0024] | 12.9
12 | 5 | CCCCCOc1cc(N2CCCN(Cc3cccc4c3ccn4CC(=O)N(C)C)C2=O)ccc1OC [CU0025] | 13.6
13 | 14 | COc1ccc(N2CCCN(Cc3cccc4c3ccn4CC(=O)N(C)C)C2=O)cc1OCCCC(C)(F)F [CU0027] | 22.5
14 | 5 | CCCCCOc1cc(N2CCCN(Cc3cccc4c3ccn4CC(=O)N3CCNC(=O)C3)C2=O)ccc1OC [CU0028] | 8.9
15 | 2.1 | CCCCCOc1cc(N2CCCN(Cc3cccc4c3ccn4CC(=O)N3CCOCC3)C2=O)ccc1OC [CU0029] | 15
16 | 1.8 | CCCCCOc1cc(N2CCCN(Cc3cccc4c3ccn4CC(=O)N3CCOC(C)(C)C3)C2=O)ccc1OC [CU0030] | 26.9
17 | 6 | CCCCCOc1cc(N2CCCN(Cc3cccc4c3ccn4CC(=O)N3CCOC(COC)C3)C2=O)ccc1OC (stereo not shown) [CU0031] | 15.7
18 | 47.5 | CCCCCOc1cc(N2CCCN(Cc3ccnc4[nH]ccc34)C2=O)ccc1OC [CU0032] | 51.8
19 | 62 | CCCCCOc1cc(N2CCN(Cc3ccnc4c3ccn4CC(=O)N(C)C)C2=O)ccc1OC [CU0033] | 136
20 | 33.5 | CCCCCOc1cc(N2CCCN(Cc3ccnc4c3ccn4CC(=O)N(C)C)C2=O)ccc1OC [CU0035] | 30.8
21 | 25 | CCCCCOc1cc(N2CCCN(Cc3ccnc4c3ccn4CC(=O)N(C)C)C2=O)ccc1C1CC1 [CU0036] | 121
22 | 15.5 | CCCCCOc1cc(N2CCCN([C@@H](C)c3ccnc4c3ccn4CC(=O)N(C)C)C2=O)ccc1OC [CU0037] | 47.1
23 | 17 | CCCCCOc1cc(N2CCCN(Cc3ccnc4c3ccn4CC(=O)N3CC[C@@H](OC)C3)C2=O)ccc1OC [CU0041] | 55.2
24 | 106 | CCCCCOc1cc(N2CCN(Cc3ccnc4c3ccn4CC(=O)N3CCOCC3)C2=O)ccc1OC [CU0042] | 63.1
25 | 16.5 | CCCCCOc1cc(N2CCCN(Cc3ccnc4c3ccn4CC(=O)N3CCOCC3)C2=O)ccc1OC [CU0043] | 29.5

Row | Kd [1] [nM] | Compound | IC50 (Human C5) [nM]
26 | 35.5 | CCCCCOc1cc(N2CCCN(Cc3ccnc4c3ccn4CC(=O)N3CCOCC3)C2=O)ccc1C1CC1 [CU0044] | 87.7
27 | 26 | CCCCCOc1cc(N2CCCN([C@@H](C)c3ccnc4c3ccn4CC(=O)N3CCOCC3)C2=O)ccc1OC [CU0045] | 32.8
28 | 15.5 | CCCCCOc1cc(N2CCCN(Cc3ccnc4c3ccn4CC(=O)N3CCOC(CCO)C3)C2=O)ccc1OC (stereo not shown) [CU0046] | 38.9
29 | 18.5 | CCCCCOc1cc(N2CCCN(Cc3ccnc4c3ccn4CC(=O)N3CCOC(COC)C3)C2=O)ccc1OC (stereo not shown) [CU0048] | 57.3
30 | 21 | CCCCCOc1cc(N2CCCN(Cc3ccnc4c3ccn4CC(=O)N3CCOC(C)(COC)C3)C2=O)ccc1OC (stereo not shown) [CU0049] | 44.7
31 | 9 | CCCCCOc1cc(N2CCCN(Cc3ccnc4c3ccn4CC(=O)N3CCOC(CN(C)C)C3)C2=O)ccc1OC (stereo not shown) [CU0050] | 18
32 | 8 | CCCCCOc1cc(N2CCCN(Cc3ccnc4c3ccn4CC(=O)N3CCOC(CN4CCCC4)C3)C2=O)ccc1OC (stereo not shown) [CU0051] | 45.9
33 | 10.5 | CCCCCOc1cc(N2CCCN([C@@H](C)c3ccnc4c3ccn4CC(=O)N3CCCOCC3)C2=O)ccc1OC [CU0055] | 31.2
34 | 23 | CCCCCOc1cc(N2CCCN(Cc3ccnc4c3ccn4CC(=O)N3CCN(C4CC4)CC3)C2=O)ccc1OC [CU0056] | 48.8
35 | 18 | CCCCCOc1cc(N2CCCN(Cc3ccnc4c3ccn4CC(=O)N3CCN(CCOC)CC3)C2=O)ccc1OC [CU0057] | 22.4
36 | 13.5 | CCCCCOc1cc(N2CCCN(Cc3ccnc4c3ccn4CC(=O)N3CCNC(=O)C3)C2=O)ccc1OC [CU0059] | 32.9
37 | 14 | CCCCCOc1cc(N2CCCN(Cc3ccnc4c3ccn4CC(=O)N3CCN(C)C(=O)C3)C2=O)ccc1OC [CU0060] | 40.3
38 | 13 | CCCCCOc1cc(N2CCCN(Cc3ccnc4c3ccn4CC(=O)N3CCN(C)C(=O)C3)C2=O)ccc1C1CC1 [CU0061] | 52.3
39 | 17.5 | CCCCCOc1cc(N2CCCN(Cc3ccnc4c3ccn4CC(=O)N3CC(=O)N(C)C(C)C3)C2=O)ccc1OC (stereo not shown) [CU0062] | 33.4
40 | 10.5 | CCCCCOc1cc(N2CCCN(Cc3cccc4c3ncn4CC(=O)N3CCN(C(C)=O)CC3)C2=O)ccc1OC [CU0063] | 28.3
41 | 394 | CCCCCOc1cc(N2CCN(Cc3cccc4c3OCO4)C2=O)ccc1OC [CU0064] | 799
42 | 370 | CCCCCOc1cc(N2CCCN(Cc3cccc4c3OCO4)C2=O)ccc1OC [CU0065] | 123
43 | 2.1 | CCCCCOc1cc(N2CCCN(Cc3ccc(CC(=O)N4CCCOCC4)cc3OC)C2=O)ccc1OC [CU0100] | 21
44 | 3.4 | CCCC(F)(F)COc1cc(N2CCCN(Cc3ccc(CC(=O)N(C)C)cc3OC)C2=O)ccc1OC [CU0111] | 25.2
45 | 2.6 | CCCC(F)(F)COc1cc(N2CCCN(Cc3ccc(CC(=O)N4CCCOCC4)cc3OC)C2=O)ccc1OC [CU0112] | 25.9
46 | 7.8 | CCCCCOc1cc(N2CCCN(Cc3ccc(CC(=O)N(C)C)cc3Cl)C2=O)ccc1OC [CU0115] | 27.9
47 | 10.3 | CCCCCOc1cc(N2CCCN(Cc3ccc(CC(=O)N4CCOCC4)cc3Cl)C2=O)ccc1OC [CU0116] | 23.2
48 | 8.3 | CCCCCOc1cc(N2CCCN(Cc3ccc(CC(=O)N4CCCOCC4)cc3Cl)C2=O)ccc1OC [CU0117] | 32.5
49 | 12.8 | CCCCCOc1cc(N2CCCN(Cc3ccc(CC(=O)N4CCCC4)cc3Cl)C2=O)ccc1OC [CU0118] | 35.3
50 | 3.6 | CCCCCOc1cc(N2CCCN(Cc3ccc(Cc4nnco4)cc3OC)C2=O)ccc1OC [CU0120] | 11.8
